Literature values as cited in paper PMC9877316, “Identification of a novel P2X7 antagonist using structure-based virtual screening” (Frontiers in Pharmacology, 2023).

What was measured:
Parameters in all cases: method as in Villoutreix et al., 2011
[1] = system: tyrosine kinase Syk; conditions: antibody displacement assay; ref Villoutreix et al., 2011; cited from earlier work
[2] = system: mast cell degranulation; conditions: ref Villoutreix et al., 2011; read-out: IC50 for inhibiting mast cell degranulation; cited from earlier work
[3] = target: tyrosine kinase Syk; conditions: ref Villoutreix et al., 2011; cited from earlier work

For `CCOC(=O)C1=C(C)NC2=C(C(=O)c3ccccc32)C1c1cc(Br)ccc1OCC(=O)O` (stereo not drawn) [Chembridge ID 6422575, (4-bromo-2-[3-(ethoxycarbonyl)-2-methyl-5-oxo-4,5-dihydro-1H-indeno[1,2-b]pyridin-4-yl]phenoxy) acetic acid], the “inhibition of antibody binding” value [1] is listed as 81%, the IC50 [2] is listed as no less than 20 µM and the Kd [3] is listed as 6.2 µM.
